Data as given in patent US20100184758A1, “BETA CARBOLINE DERIVATIVES AS ANTIDIABETIC COMPOUNDS” (priority 2007, published 2010).

Tests used:
Format in all cases: in vivo, mouse
C57BL/6N mice [1] = assay: Glucose tolerance test in mice; settings: wild type mice containing intact, functional SSTR3
Procedure: (§1) Male C57BL/6N mice (7-12 weeks of age) are housed 10 per cage and given access to normal diet rodent chow and water ad libitum. Mice are randomly assigned to treatment groups and fasted 4 to 6 h. Baseline blood glucose concentrations are determined by glucometer from tail nick blood. Animals are then treated orally with vehicle (0.25% methylcellulose) or test compound. Blood glucose concentration is measured at a set time point after treatment (t=0 min) and mice are then challenged with dextrose intraperitoneally- (2-3 g/kg) or orally (3-5 g/kg). One group of vehicle-treated mice is challenged with saline as a negative control. Blood glucose levels are determined from tail bleeds taken at 20, 40, 60 minutes after dextrose challenge. […] Percent inhibition values for each treatment are generated from the AUC data normalized to the saline-challenged controls. A similar assay may be performed in rats.

SSTR3 knock out mice = assay: Glucose tolerance test in SSTR3 gene knockout mice; settings: oral dose in the range of 1 to 30 mg/kg po
Procedure: as §1
In order to assess the selectivity of blockade of SSTR3, compounds were evaluated in the oral glucose tolerance test (oGTT) described above in mice lacking the gene for a functional SSTR3.

C57BL/6N mice [2] = assay: Oral glucose tolerance test in mice, SSTR3 antagonist combined with DPP-4 inhibitor; settings: suboptimal doses 0.001 to 0.1 mg/kg po with low doses of a DPP-4 inhibitor such as sitagliptin and des-fluoro-sitagliptin
Procedure: Compounds of the present invention were combined with dipeptidyl peptidase-IV (DPP-4) inhibitors in oral glucose tolerance test (oGTT) described above. Male C57BL/6N mice (7-12 weeks of age) were housed 10 per cage and given access to normal rodent chow and water ad libitum. Mice were randomly assigned to treatment groups and fasted 4 to 6 h. Baseline blood glucose concentrations were determined by glucometer from tail nick blood. […] Blood glucose concentration was measured at a set time point after treatment (t=0 min) and mice were then challenged with dextrose intraperitoneally (2-3 g/kg) or orally (3-5 g/kg). One group of vehicle-treated mice was challenged with saline as a negative control. Blood glucose levels were determined from tail bleeds taken at 20, 40, 60 min after dextrose challenge. […] Percent inhibition values for each treatment were generated from the AUC data normalized to the saline-challenged controls.

SMILES	inhibition of glucose excursion in oGTT (C57BL/6N mice [1])	inhibition of glucose excursion in oGTT (SSTR3 knock out mice)	activity in oGTT in combination with a DPP-4 inhibitor versus alone (C57BL/6N mice [2])
Cc1nc(C2N[C@@H](c3nc(-c4ccc(F)cc4)c[nH]3)Cc3c2[nH]c2ccccc32)no1 (stereo partly drawn) [Example 17, (3R)-3-[4-(4-Fluorophenyl)-1H-imidazol-2-yl]-1-(5-methyl-1,2,4-oxadiazol-3-yl)-2,3,4,9-tetrahydro-1H-β-carboline]	inhibit glucose excursion	failed to significantly inhibit glucose excursion	–
CCOCC1(c2cnn(C)c2)N[C@@H](c2nc(-c3ccc(F)cc3)c[nH]2)Cc2c1[nH]c1ccccc21 (stereo partly drawn) [Example 20, (3R)-[4-(4-Fluorophenyl)-1H-imidazol-2-yl]-1-(ethoxymethyl)-1-(1-methyl-1H-pyrazol-4-yl)-2,3,4,9-tetrahydro-1H-β-carboline]	inhibit glucose excursion	failed to significantly inhibit glucose excursion	more active in combination with low doses of a DPP-4 inhibitor
Cc1nc(C2(c3cnn(C)c3)N[C@@H](c3nc(-c4ccc(F)cc4)c[nH]3)Cc3c2[nH]c2ccccc32)no1 (stereo partly drawn) [Example 21, (3R)-[4-(4-Fluorophenyl)-1H-imidazol-2-yl]-1-(5-methyl-1,2,4-oxadiazol-3-yl)-1-(1-methyl-1H-pyrazol-4-yl)-2,3,4,9-tetrahydro-1H-β-carboline]	inhibit glucose excursion	–	–
